Source: BindingDB's records for patent US8962648 (Oncotherapy Science, 2015)

Target: T1, Lymphokine-activated killer T-cell-originated protein kinase (Homo sapiens, UniProt Q96KB5)
T1 sequence (Q96KB5 whole entry): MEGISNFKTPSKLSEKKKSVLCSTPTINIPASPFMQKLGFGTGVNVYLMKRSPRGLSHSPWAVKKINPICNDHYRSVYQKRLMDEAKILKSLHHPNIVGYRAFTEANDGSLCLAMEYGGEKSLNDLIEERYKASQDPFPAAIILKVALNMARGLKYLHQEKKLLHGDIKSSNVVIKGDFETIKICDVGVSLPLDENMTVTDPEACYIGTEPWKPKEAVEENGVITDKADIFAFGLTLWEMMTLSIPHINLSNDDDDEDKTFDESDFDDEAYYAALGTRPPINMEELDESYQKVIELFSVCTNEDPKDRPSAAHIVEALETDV
Assay: Kinase Assay
Details: pH 7.4; 25 °C
Protocol: PBK activity was determined in the presence or absence of compounds using fluorescein isothiocyanate-labeled (FITC-labeled) histone H3 peptide as a substrate. […] The serially diluted compounds, 0.8 ng/micro-L PBK (Carna Biosciences) and 100 nM FITC-labeled histone H3 peptide were reacted in a reaction buffer (20 mM HEPES, 0.01% Tween-20, 0.3 mM MgCl2, 2 mM dithiothreitol, 50 micro-M ATP, pH 7.4) at room temperature for 1 hour. The reaction was stopped by the addition of three fold assay volume of progressive binding solution. Following 0.5 hour incubation at room temperature.

Structure (SMILES) | IC50 [nM]
Cc1cc(O)c(-c2ccc(C(C)(C)CN)c(F)c2)c2c1[nH]c(=O)c1sccc12 [US8962648, 1278] | 22
CC(CN)c1ccc(-c2c(O)ccc3[nH]c(=O)c4sccc4c23)cc1Cl (stereo not given) [US8962648, 1280] | 10
Cc1cc(O)c(-c2ccc(C3(CN)CCC3)cc2)c2c1[nH]c(=O)c1sccc12 [US8962648, 1290] | 10
CCC(CN)c1ccc(-c2c(O)cc(C)c3[nH]c(=O)c4sccc4c23)cc1 (stereo not given) [US8962648, 1291] | 15
COc1cc(C)c2[nH]c(=O)c3sccc3c2c1-c1ccc(C2(CN)CCC2)cc1 [US8962648, 1297] | 35
NCC1(c2ccc(-c3c(O)ccc4[nH]c(=O)c5sccc5c34)cc2)CCC1 [US8962648, 1300] | 1.7
CCC(CN)c1ccc(-c2c(O)ccc3[nH]c(=O)c4sccc4c23)cc1 (stereo not given) [US8962648, 1309] | 0.74
CCC(CN)c1ccc(-c2c(O)cc(Cl)c3[nH]c(=O)c4sccc4c23)cc1 (stereo not given) [US8962648, 1312] | 19
COc1cc(Cl)c2[nH]c(=O)c3sccc3c2c1-c1ccc(C2(CN)CCC2)cc1 [US8962648, 1321] | 96
Cc1cc(O)c(-c2ccc(C(C)(C)N)cc2)c2c1[nH]c(=O)c1sccc12 [US8962648, 1330] | 8.3
Cc1cc2c(s1)c(=O)[nH]c1c(C)cc(O)c(-c3ccc([C@@H](C)CN)cc3)c12 [US8962648, 1340] | 12
COc1cc(C)c2[nH]c(=O)c3sc(C)cc3c2c1-c1ccc([C@@H](C)CN)cc1 [US8962648, 1341] | 38
Cc1cc(O)c(-c2ccc([C@@H](C)CN)cc2)c2c1[nH]c(=O)c1sc(Cl)cc12 [US8962648, 1353] | 4
COc1cc(C)c2[nH]c(=O)c3sc(Cl)cc3c2c1-c1ccc([C@@H](C)CN)cc1 [US8962648, 1354] | 11
Cc1cc(O)c(-c2ccc(C3(CN(C)C)CCC3)cc2)c2c1[nH]c(=O)c1sccc12 [US8962648, 1372] | 42
COc1cc(C)c2[nH]c(=O)c3sc(F)cc3c2c1-c1ccc([C@@H](C)CN)cc1 [US8962648, 1375] | 22
Cc1cc(O)c(-c2ccc([C@@H](C)CN)cc2)c2c1[nH]c(=O)c1sc(F)cc12 [US8962648, 1383] | 3.7
COc1cc(Br)c2[nH]c(=O)c3sccc3c2c1-c1ccc(C2(CN)CC2)cc1 [US8962648, 1391] | 70
NCC1(c2ccc(-c3c(O)cc(Br)c4[nH]c(=O)c5sccc5c34)cc2)CC1 [US8962648, 1401] | 51
Cc1cc(O)c(-c2ccc(C(C)CS(N)(=O)=O)cc2)c2c1[nH]c(=O)c1sccc12 (stereo not given) [US8962648, 1419] | 82
